What was measured:
[1] = test system: P19 cells, embryonal pluripotent murine teratocarcinoma cell line; conditions: after 4 days of treatment, RT-PCR and RNase protection; for prodynorphin gene expression: P19 indifferentiated cells in suspension; for gene induction of the GATA-4 and Nkx-2.5 genes: P19 indifferentiated cells, follows the prodynorphin increase
Method: The experiments were carried out on P19 cells, embryonal pluripotent murine teratocarcinoma cell line (European Collection of Cell Cultures, UK). These cultured cells indifferentiately proliferate but can be transformed into several cell phenotypes in the presence of differentiating agents, thus selectively summarising the first molecular events that take place during the embryonal growth. […] P19 cells are cultivated in a suspension in alpha-mem medium in 60 mm Petri dishes, either in the absence or in the presence of the hyaluronan esters of the invention. After 4 days of treatment, the total RNA was extracted according to the procedure described by Chomczynsky and Sacchi (Chomczynsky, P., N. Sacchi, Anal. Biochem. 162: 156-159, 1987) and the expression of specific transcripts was evaluated by RT-PCR and RNase protection.

[2] = test system: P19 cells, embryonal pluripotent murine teratocarcinoma cell line; conditions: cultured P19 cells; McBurney et al., Nature 1982; cited from earlier work

Hyaluronan Ester with Trans-Retinoic Acid [Example 3]
prodynorphin gene expression [1]: marked increase
gene induction of the GATA-4 and Nkx-2.5 genes [1]: gene induction

CC(C=CC1=C(C)CCCC1(C)C)=CC=CC(C)=CC(=O)O [retinoic acid, 3,7-dimethyl-9-(2,6,6-trimethyl-1-cyclohexene-1-yl)-2,4,6,8-nonatetraenoic acid]
differentiation phenotype of P19 cells in the presence of a differentiating agent [2]: turn into neuronal cells

Ester of Hyaluronan with Trans-Retinoic Acid [Example 4]
prodynorphin gene expression [1]: marked increase
gene induction of the GATA-4 and Nkx-2.5 genes [1]: gene induction

C[S+](C)[O-] [DMSO, dimethylsulphoxide]
differentiation phenotype of P19 cells in the presence of a differentiating agent [2]: turn into myocardial cells supplied with spontaneous contractile activity

— patent publication US6897203B2, “Polysaccharidic esters of retinoic acid” (priority 2001, dated 2005)
